Source: the supplement of paper PMC11061612

Legend:
Prexasertib = compound: COc1cccc(OCCCN)c1-c1cc(Nc2cnc(C#N)cn2)n[nH]1 [Prexasertib]; settings: max 1 µM
Summary of the method: (§1)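 Viability was measured with CellTiter-Glo 2.0 luminescence after 72 hours of dosing at a final DMSO of typically 0.2%, and scaled between blank-well and DMSO-well means. Beforehand, cancer cell lines sat 24 hours at 37°C and 5% CO2 in 1536-well plates in 7.5 μl DMEM/F12 or RPMI with 10% FBS. A non-linear mixed effects model fitted two-parameter logistic curves to the dose responses. The single-agent IC50 comes from these fits.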

Savolitinib = compound: C[C@@H](c1ccc2nccn2c1)n1nnc2ncc(-c3cnn(C)c3)nc21 [Savolitinib]; settings: max 1 µM
Summary of the method: as §1

Gefitinib = compound: COc1cc2ncnc(Nc3ccc(F)c(Cl)c3)c2cc1OCCCN1CCOCC1 [Gefitinib]; settings: max 10 µM
Summary of the method: as §1

MK-2206 = compound: NC1(c2ccc(-c3nc4ccn5c(=O)[nH]nc5c4cc3-c3ccccc3)cc2)CCC1 [MK-2206]; settings: max 10 µM
Summary of the method: as §1

AZD7648 = compound: Cc1cc2ncnn2cc1Nc1ncc2c(n1)n(C1CCOCC1)c(=O)n2C [AZD7648]; settings: max 10 µM
Summary of the method: as §1

Dasatinib = compound: CC1=C(C(=CC=C1)Cl)NC(=O)C2=CN=C(S2)NC3=CC(=NC(=N3)C)N4CCN(CC4)CCO [Dasatinib]; settings: max 2 µM
Summary of the method: as §1

AZD5153 = compound: COc1nnc2ccc(N3CCC(c4ccc(OCCN5CCN(C)C(=O)[C@H]5C)cc4)CC3)nn12 [AZD5153]; settings: max 1 µM
Summary of the method: as §1

AZD8186 = compound: C[C@@H](Nc1cc(F)cc(F)c1)c1cc(C(=O)N(C)C)cc2c(=O)cc(N3CCOCC3)oc12 [AZD8186]; settings: max 10 µM
Summary of the method: as §1

Olaparib = compound: O=C(c1cc(Cc2n[nH]c(=O)c3ccccc23)ccc1F)N1CCN(C(=O)C2CC2)CC1 [Olaparib]; settings: max 10 µM
Summary of the method: as §1

AZD4320 = compound: CN(CC[C@H](CSC1=CC=CC=C1)NC2=C(C=C(C=C2)S(=O)(=O)NC(=O)C3=CC=C(C=C3)N4CCC(CC4)[C@H](C5=CC=CC=C5C6=CC=C(C=C6)Cl)O)S(=O)(=O)C(F)(F)F)CCO [AZD4320]; settings: max 1 µM
Summary of the method: as §1

Palbociclib = compound: CC(=O)c1c(C)c2cnc(Nc3ccc(N4CCNCC4)cn3)nc2n(C2CCCC2)c1=O [Palbociclib]; settings: max 10 µM
Summary of the method: as §1

AZD1390 = compound: CC(C)n1c(=O)n(C)c2cnc3cc(F)c(-c4ccc(OCCCN5CCCCC5)nc4)cc3c21 [AZD1390]; settings: max 0.3 µM
Summary of the method: as §1

Carboplatin = compound: C1CC(C1)(C(=O)[O-])C(=O)[O-].N.N.[Pt+2] [Carboplatin]; settings: max 10 µM
Summary of the method: as §1

Lapatinib = compound: CS(=O)(=O)CCNCc1ccc(-c2ccc3ncnc(Nc4ccc(OCc5cccc(F)c5)c(Cl)c4)c3c2)o1 [Lapatinib]; settings: max 10 µM
Summary of the method: as §1

Gemcitabine = compound: Nc1ccn([C@@H]2O[C@H](CO)[C@@H](O)C2(F)F)c(=O)n1 [Gemcitabine]; settings: max 0.3 µM
Summary of the method: as §1

Doxorubicin = compound: COc1cccc2c1C(=O)c1c(O)c3c(c(O)c1C2=O)C[C@@](O)(C(=O)CO)C[C@@H]3O[C@H]1C[C@H](N)[C@H](O)[C@H](C)O1 [Doxorubicin]; settings: max 1 µM
Summary of the method: as §1

Paclitaxel = compound: CC(=O)O[C@H]1C(=O)[C@@]2(C)[C@H]([C@H](OC(=O)c3ccccc3)[C@]3(O)C[C@H](OC(=O)[C@H](O)[C@@H](NC(=O)c4ccccc4)c4ccccc4)C(C)=C1C3(C)C)[C@]1(OC(C)=O)CO[C@@H]1C[C@@H]2O [Paclitaxel]; settings: max 3 µM
Summary of the method: as §1

Alisertib = compound: COc1cc(Nc2ncc3c(n2)-c2ccc(Cl)cc2C(c2c(F)cccc2OC)=NC3)ccc1C(=O)O [Alisertib]; settings: max 10 µM
Summary of the method: as §1

AZD0156 = compound: CN(C)CCCOc1ccc(-c2ccc3ncc4c(c3c2)n(C2CCOCC2)c(=O)n4C)cn1 [AZD0156]; settings: max 3 µM
Summary of the method: as §1

AZD5363 = compound: C1CN(CCC1(C(=O)N[C@@H](CCO)C2=CC=C(C=C2)Cl)N)C3=NC=NC4=C3C=CN4 [AZD5363]; settings: max 10 µM
Summary of the method: as §1

5-Fluorouracil = compound: O=c1[nH]cc(F)c(=O)[nH]1 [5-Fluorouracil]; settings: max 20 µM
Summary of the method: as §1

AZD6738 = compound: C[C@@H]1COCCN1C2=NC(=NC(=C2)C3(CC3)[S@](=N)(=O)C)C4=C5C=CNC5=NC=C4 [AZD6738]; settings: max 10 µM
Summary of the method: as §1

Trametinib = compound: CC(=O)Nc1cccc(-n2c(=O)n(C3CC3)c(=O)c3c(Nc4ccc(I)cc4F)n(C)c(=O)c(C)c32)c1 [Trametinib]; settings: max 1 µM
Summary of the method: as §1

Taselisib = compound: Cc1nc(-c2cn3c(n2)-c2ccc(-c4cnn(C(C)(C)C(N)=O)c4)cc2OCC3)n(C(C)C)n1 [Taselisib]; settings: max 10 µM
Summary of the method: as §1

AZD1775 = compound: C=CCn1c(=O)c2cnc(Nc3ccc(N4CCN(C)CC4)cc3)nc2n1-c1cccc(C(C)(C)O)n1 [AZD1775]; settings: max 3 µM
Summary of the method: as §1

SN-38 = compound: CCc1c2c(nc3ccc(O)cc13)-c1cc3c(c(=O)n1C2)COC(=O)[C@]3(O)CC [SN-38]; settings: max 0.3 µM
Summary of the method: as §1

SRA737 = compound: N#Cc1cnc(Nc2cc(NC[C@H]3CNCCO3)c(C(F)(F)F)cn2)cn1 [SRA737]; settings: max 10 µM
Summary of the method: as §1

Crizotinib = compound: C[C@@H](Oc1cc(-c2cnn(C3CCNCC3)c2)cnc1N)c1c(Cl)ccc(F)c1Cl [Crizotinib]; settings: max 10 µM
Summary of the method: as §1

[1] = compound: O=C(Nc1ccc2[nH]nc(-c3ccncc3)c2c1)[C@@H]1CCN(CC(=O)N2CCN(c3ccc(-c4ncccn4)cc3)CC2)C1; settings: max 5 µM
Summary of the method: as §1

Venetoclax = compound: CC1(C)CCC(CN2CCN(c3ccc(C(=O)NS(=O)(=O)c4ccc(NCC5CCOCC5)c([N+](=O)[O-])c4)c(Oc4cnc5[nH]ccc5c4)c3)CC2)=C(c2ccc(Cl)cc2)C1 [Venetoclax]; settings: max 1 µM
Summary of the method: as §1

Selumetinib = compound: Cn1cnc2c(F)c(Nc3ccc(Br)cc3Cl)c(C(=O)NOCCO)cc21 [Selumetinib]; settings: max 10 µM
Summary of the method: as §1

AZD2811 = compound: CCN(CCO)CCCOc1ccc2c(Nc3cc(CC(=O)Nc4cccc(F)c4)[nH]n3)ncnc2c1 [AZD2811]; settings: max 1 µM
Summary of the method: as §1

SG3199 = compound: CC1=CN2[C@@H](C1)C=NC3=CC(=C(C=C3C2=O)OC)OCCCCCOC4=C(C=C5C(=C4)N=C[C@@H]6CC(=CN6C5=O)C)OC [SG3199]; settings: max 0.001 µM
Summary of the method: as §1

AZD5991 = compound: Cc1c2c(nn1C)CSCc1cc(n(C)n1)CSc1cc(c3ccccc3c1)OCCCc1c(C(=O)O)n(C)c3c-2c(Cl)ccc13 [AZD5991]; settings: max 1 µM
Summary of the method: as §1

Etoposide = compound: COc1cc([C@@H]2c3cc4c(cc3[C@@H](O[C@@H]3O[C@@H]5CO[C@@H](C)O[C@H]5[C@H](O)[C@H]3O)[C@H]3COC(=O)[C@H]23)OCO4)cc(OC)c1O [Etoposide]; settings: max 10 µM
Summary of the method: as §1

Row | Cell Line | IC50, cell viability 72 h (Prexasertib) [µM] | IC50, cell viability 72 h (Savolitinib) [µM] | IC50, cell viability 72 h (Gefitinib) [µM] | IC50, cell viability 72 h (MK-2206) [µM] | IC50, cell viability 72 h (AZD7648) [µM] | IC50, cell viability 72 h (Dasatinib) [µM] | IC50, cell viability 72 h (AZD5153) [µM] | IC50, cell viability 72 h (AZD8186) [µM] | IC50, cell viability 72 h (Olaparib) [µM] | IC50, cell viability 72 h (AZD4320) [µM] | IC50, cell viability 72 h (Palbociclib) [µM] | IC50, cell viability 72 h (AZD1390) [µM] | IC50, cell viability 72 h (Carboplatin) [µM] | IC50, cell viability 72 h (Lapatinib) [µM] | IC50, cell viability 72 h (Gemcitabine) [µM] | IC50, cell viability 72 h (Doxorubicin) [µM] | IC50, cell viability 72 h (Paclitaxel) [µM] | IC50, cell viability 72 h (Alisertib) [µM] | IC50, cell viability 72 h (AZD0156) [µM] | IC50, cell viability 72 h (AZD5363) [µM] | IC50, cell viability 72 h (5-Fluorouracil) [µM] | IC50, cell viability 72 h (AZD6738) [µM] | IC50, cell viability 72 h (Trametinib) [µM] | IC50, cell viability 72 h (Taselisib) [µM] | IC50, cell viability 72 h (AZD1775) [µM] | IC50, cell viability 72 h (SN-38) [µM] | IC50, cell viability 72 h (SRA737) [µM] | IC50, cell viability 72 h (Crizotinib) [µM] | IC50, cell viability 72 h [1] [µM] | IC50, cell viability 72 h (Venetoclax) [µM] | IC50, cell viability 72 h (Selumetinib) [µM] | IC50, cell viability 72 h (AZD2811) [µM] | IC50, cell viability 72 h (SG3199) [µM] | IC50, cell viability 72 h (AZD5991) [µM] | IC50, cell viability 72 h (Etoposide) [µM]
1 | MDA-MB-415 (Breast Carcinoma) | > 1 | > 1 | > 10 | 1.25 | > 10 | > 2 | > 1 | 0.216 | > 10 | 0.847 | > 10 | > 0.3 | > 10 | > 10 | > 0.3 | > 1 | 0.0298 | > 10 | > 3 | 0.727 | > 20 | > 10 | > 1 | 6.01 | > 3 | > 0.3 | > 10 | > 10 | > 5 | > 1 | > 10 | > 1 | > 0.001 | > 1 | > 10
2 | MONO-MAC-6 (Acute Myeloid Leukemia) | 0.052 | > 1 | > 10 | 4.14 | > 10 | > 2 | 0.0306 | 6.44 | > 10 | > 1 | > 10 | > 0.3 | > 10 | > 10 | 0.00443 | 0.127 | 0.00721 | 2.09 | > 3 | 5.27 | 1.63 | 3.4 | 0.446 | 4.75 | 0.535 | 0.00764 | 3.35 | 2.98 | 2.1 | > 1 | > 10 | 0.303 | > 0.001 | 0.0678 | 2.85
3 | MS-1 (Small Cell Lung Carcinoma) | 0.022 | > 1 | > 10 | > 10 | > 10 | > 2 | 0.12 | > 10 | > 10 | > 1 | > 10 | > 0.3 | > 10 | > 10 | 0.197 | 0.244 | 0.104 | > 10 | > 3 | > 10 | > 20 | 4.38 | > 1 | > 10 | 0.531 | 0.0577 | 9.42 | 6.28 | > 5 | > 1 | > 10 | > 1 | > 0.001 | > 1 | 7.2
